Assay results from article PMC1247661 (Environmental Health Perspectives, 2004).

Tests used:
[1] = 13 weeks; mean ±SD of 10 rats; TCDD 100, PeCDF 200, PCB126 1,000 ng/kg/day, PCB153 1,000 μg/kg/day; ref NTP 2004a, 2004b, 2004c; cited from earlier work
[2] = system: hepatic gene expression; assay: Real-time RT-PCR of hepatic mRNA after 13-week exposure: TCDD 100, PeCDF 200, PCB126 1,000 ng/kg/day, PCB153 1,000 μg/kg/day; assay type: in vivo, female Harlan Sprague-Dawley rats; conditions: liver, 13 weeks; average (± 1 SD) of three RNA pools; normalized to 18S RNA
Protocol: Tissues for this study were provided by the NTP ([NTP 2004a], [2004b], [2004c]) as part of a 2-year bioassay for relative carcinogenic potencies of dioxin-like chemicals. […] Toxicologic dose equivalence was based on the current World Health Organization TEF recommendations ([Van den Berg et al. 1998]). Subgroups of rats were sacrificed at 14, 31, and 53 weeks (corresponding to 13, 30, or 52 weeks of exposure), and target organs were removed, flash frozen in liquid nitrogen, and stored at −70°C for mechanistic studies.
Frozen hepatic tissue was disrupted by homogenization with a rotor stator homogenizer, and total RNA was isolated with Qiagen RNeasy columns Qiagen Inc., Valencia, CA). There were a total of six rats in each exposure group. Three pools of RNA were created from each exposure group (n = 2 rats per pool), similar to the experimental design of [Yechoor et al. (2002)]. Pooled total RNA was further purified using the Qiagen poly(A) RNA isolation kit. RNA integrity was assessed by the Agilent Bioanalyzer 2100 (Agilent Technologies, Palo Alto, CA). […] Poly(A) RNA was transformed into labeled cRNA by the Roswell Park Cancer Institute Microarray and Genomics Core Facility (Buffalo, NY). cRNA from each pool was fragmented and its quality evaluated with Affymetrix GeneChip Test3 arrays (Santa Clara, CA) by comparing 3′:5′ signal ratios of housekeeping genes. High-quality cRNA (3′:5′ signal ratio near 1) was subsequently hybridized to Affymetrix RGU34A GeneChips, and chips were scanned with the Affymetrix 428 scanner.
Reverse transcriptase reactions (80 μL) contained 20 μg total RNA, 0.5 mM dNTP mix, and 15 ng/μL random primers, 1 × first-strand buffer, 10 mM dithiothreitol, 27 U Rnasin RNase inhibitor (Promega, Madison, WI), and 800 U superscript reverse transcriptase (Invitrogen). A mixture containing total RNA, dNTPs, and random primers was heated to 65°C for 5 min to denature the RNA and then immediately placed on ice. The remaining components of the reaction mixture were then added to the RNA, and cDNA synthesis was performed at 42°C for 60 min. Reactions were terminated by heating to 70°C for 10 min.
PCR primers were selected from GenBank database sequences with Primer3 software ([Rozen and Skaletsky 2000]). […] Nonspecific mispriming was managed by a mispriming threshold of 10.0 in the rodent mispriming library.
Real-time PCR was performed with the SYBR Green PCR kit from Applied Biosystems (Foster City, CA) according to the manufacturer’s instructions. PCR reactions (25 μL) contained diluted cDNA, 1 × SYBR Green buffer, 3 mM MgCl2, 0.2 mM dNTP mix, 0.2 μM left and right primers, 10 nM fluorescein, and 1.1 U of Amplitaq Gold polymerase. The reaction was initiated by incubation at 95°C for 10 min and followed by 40 cycles of denaturation at 95°C for 15 sec and primer annealing/extension at 60°C for 1 min. Sample fluorescence was evaluated during the annealing/extension step. Upon completion of thermocycling, the specificity of each reaction was evaluated by melting analysis. Samples were heated to 95°C for 2 min and cooled to 55°C. The temperature was maintained at 55°C for 15 sec to analyze sample fluorescence, and the temperature was increased by increments of 0.5°C followed by 15 sec of fluorescence analysis for a total of 80 cycles.
The efficiency of each primer set was validated over a range of cDNA concentrations. […] After primer validation, PCR reactions were performed with a single cDNA concentration, and the threshold cycle (Ct) was determined for each reaction. The difference (ΔCt) between the threshold cycle for the target gene and endogenous control gene (18S RNA) was calculated for each sample, and the 18S normalized relative expression of each gene was calculated by the comparative method according to the Applied Biosystems’ User Bulletin No. 2 for the ABI Prism Sequence Detection System (Applied Biosystems), as described by [Imasato et al. (2002)].

[3] = system: liver; conditions: TCDD 100, PeCDF 200, PCB126 1,000 ng/kg/day, ref NTP 2004a, 2004b, 2004c; cited from earlier work
[4] = system: liver; conditions: 13 weeks, ref NTP 2004a, 2004b, 2004c, cited from earlier work; for Liver hypertrophy, incidence (number of rats of 10): TCDD 100, PeCDF 200, PCB126 1,000 ng/kg/day, PCB153 1,000 μg/kg/day; for Liver hypertrophy, severity in words: highest dose of each compound; for Liver hypertrophy, mean severity score: 1, minimal, 2, mild, 3, moderate, 4, marked
[5] = system: hepatic gene expression; conditions: liver, 13 weeks; average (± 1 SD) of three GeneChips
[6] = same doses, 1, minimal to 4, marked

SMILES | Liver levels [1] | C-CAM4 mRNA, average change vs vehicle, RT-PCR [2] | CAP2 mRNA, average change vs vehicle, RT-PCR [2] | CES3 mRNA, average change vs vehicle, RT-PCR [2] | CYP1B1 mRNA, average change vs vehicle, RT-PCR [2] | CYP3A9 mRNA, average change vs vehicle, RT-PCR [2] | SERPIN7A mRNA, average change vs vehicle, RT-PCR [2] | SST mRNA, average change vs vehicle, RT-PCR [2] | Liver hypertrophy, incidence (number of rats of 10) [4] | Liver hypertrophy, severity in words [4] | Liver hypertrophy, mean severity score ([4]; same doses) | Diffuse fatty change, incidence (number of rats of 10) ([4]; same doses) | Multinucleated hepatocytes, incidence (number of rats of 10) ([4]; same doses) | Pigmentation, incidence (number of rats of 10) ([4]; same doses) | C-CAM4 mRNA, average change vs vehicle, Microarray [5] | CAP2 mRNA, average change vs vehicle, Microarray [5] | CES3 mRNA, average change vs vehicle, Microarray [5] | CYP1B1 mRNA, average change vs vehicle, Microarray [5] | SERPIN7A mRNA, average change vs vehicle, Microarray [5] | SST mRNA, average change vs vehicle, Microarray [5] | other results
Clc1ccc(-c2cc(Cl)c(Cl)c(Cl)c2)cc1Cl [PCB126, 3,3′,4,4′,5-pentachlorobiphenyl] | 412.6 ± 73.5 ng/g | 3.5 (2.6 to 4.7) | 119.4 (104 to 137.2) | −1.4 (−1.5 to −1.3) | 106.4 (98.2 to 115.3) | −28.5 (−30.2 to −26.9) | −8.4 (−12 to −5.9) | −1.5 (−1.6 to −1.4) | 10 | minimal to mild | 1.7 | 0 | 0 | 0 | 25.1 (4 to 46.2) | 7.6 (2 to 13.2) | −4 (−4.4 to −3.6) | 317.1 (41.1 to 593.1) | −4 (−4.9 to −3.1) | −6.4 (−9.4 to −3.4) | liver findings after 2 years of exposure [3]: cholangiocarcinoma, hepatocellular adenoma, toxic hepatopathy, multinucleated hepatocytes, diffuse fatty change, and liver pigmentation
Clc1cc(Cl)c(-c2cc(Cl)c(Cl)cc2Cl)cc1Cl [PCB153, 2,2′,4,4′,5,5′-hexachlorobiphenyl] | 9,250 ± 2,061 ng/g | −1.1 (−1.3 to 1) | −1.3 (−1.5 to −1.1) | 2.4 (2.1 to 2.6) | −1.2 (−1.6 to 1) | −1.8 (−2.1 to −1.5) | −1.2 (−1.5 to 1) | −3 (−3.5 to −2.5) | 9 | minimal | 1.2 | 0 | 0 | 0 | – | – | 1.3 (1 to 1.6) | 2.1 (1 to 3.2) | 1.6 (1.3 to 1.9) | −9.5 (−10.1 to −8.9) | CYP3A9 mRNA, average change vs vehicle, Microarray [5]: 1.6 (0.8 to 2.4)
Clc1cc2oc3c(Cl)c(Cl)c(Cl)cc3c2cc1Cl [PeCDF, 2,3,4,7,8-pentachlorodibenzofuran] | 132.9 ± 47.4 ng/g | 2.5 (2.3 to 2.7) | 20.2 (17.8 to 22.9) | – | 59.7 (48.3 to 73.8) | −4.2 (−5 to −3.5) | −29.9 (−32 to −27.9) | −1.6 (−2 to −1.2) | – | – | – | – | 0 | – | 37.4 (25.5 to 49.3) | 10.9 (4 to 17.8) | −2.8 (−3.8 to −1.8) | 493.3 (310.1 to 676.5) | −2.7 (−3.6 to −1.8) | −8.3 (−11.1 to −5.5) | CYP3A9 mRNA, average change vs vehicle, Microarray [5]: −2.3 (−3.3 to −1.3)
Clc1cc2c(cc1Cl)Oc1cc(Cl)c(Cl)cc1O2 [TCDD, 2,3,7,8-tetrachlorodibenzo-p-dioxin] | 18.3 ± 0.8 ng/g | 4.1 (3.8 to 4.4) | 168.9 (147.9 to 192.9) | −4.8 (−5.2 to −4.4) | 256 (236.3 to 277.3) | −1024 (−1201.8 to −872.5) | −26.6 (−30.2 to −23.4) | −36.8 (−46.4 to −29.1) | 10 | mild to moderate | 2.3 | 2 | 3 | 0 | 133.4 (112.1 to 154.7) | 53.6 (31.1 to 76.1) | −8.1 (−9.9 to −6.3) | 676.3 (470.8 to 881.8) | −11.5 (−17.2 to −5.8) | −8 (−10.5 to −5.5) | liver findings after 2 years of exposure [3]: cholangiocarcinoma, hepatocellular adenoma, toxic hepatopathy, multinucleated hepatocytes, diffuse fatty change, and liver pigmentation; Diffuse fatty change, mean severity score [4, 6]: 1.0; Multinucleated hepatocytes, mean severity score [4, 6]: 1.0; CYP3A9 mRNA, average change vs vehicle, Microarray [5]: −35.4 (−53.4 to −17.4)
